According to PubChem BioAssay AID330 (DTP/NCI, 2004):
Values joined by “and” are separate entries in the source; they are usually repeats but may differ in a detail not shown here. Identical values can stand only once. Inconclusive results and toxic doses are left out. The calls were made as follows: active = survival T/C of 150% or more; inactive = T/C below 125% in these data.

Tested on: P388 leukemia ip, CD2F1 mice, survival T/C
Assay: NCI In Vivo Anticancer Drug Screen. Data for tumor model P388 Leukemia (intraperitoneal) in CD2F1 (CDF1) mice
Conditions: endpoint: median survival time, higher = longer survival
Outline: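 Mice carrying the transplanted tumor received test compound or vehicle. Survival was recorded in each group, and the value is the treated-group measurement divided by that of the vehicle-treated control group.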

[1] = dose: 100.0 mg/kg/injection, schedule: Q01DX001 (ip), vehicle: saline
[2] = dose: 200.0 mg/kg/injection, schedule: Q01DX001 (ip), vehicle: saline

Measured: T/C

CCN(CC)CCSc1nnc(N)s1
inactive: dose: 50.0 mg/kg/injection, schedule: Q01DX001 (ip), vehicle: saline 103 % of control | [1] 103 % of control | [2] 99 % of control

O=c1nc2[nH]c3c4cccc5cccc(c3nc2c(=O)[nH]1)c54
inactive: dose: 12.5 mg/kg/injection, schedule: Q01DX005 (ip), vehicle: Klucel (hydroxypropylcellulose) (HPC) 101 % of control and 108 % of control | dose: 25.0 mg/kg/injection, schedule: Q01DX005 (ip), vehicle: Klucel (hydroxypropylcellulose) (HPC) 101 % of control and 98 % of control | dose: 50.0 mg/kg/injection, schedule: Q01DX005 (ip), vehicle: Klucel (hydroxypropylcellulose) (HPC) 106 % of control and 110 % of control (2×) | dose: 100.0 mg/kg/injection, schedule: Q01DX005 (ip), vehicle: Klucel (hydroxypropylcellulose) (HPC) 108 % of control and 113 % of control and 124 % of control

CCOc1ccc(N2C(N)=NC(N)=NC2(C)C)cc1
inactive: dose: 12.5 mg/kg/injection, schedule: Q01DX005 (ip), vehicle: saline with Tween-80 99 % of control | dose: 25.0 mg/kg/injection, schedule: Q01DX005 (ip), vehicle: saline with Tween-80 101 % of control | dose: 50.0 mg/kg/injection, schedule: Q01DX005 (ip), vehicle: saline with Tween-80 101 % of control and 108 % of control

CN(C)CCOc1cccc(NC2=C(Cl)C(=O)C(Nc3cccc(OCCN(C)C)c3)=C(Cl)C2=O)c1
inactive: dose: 1.56 mg/kg/injection, schedule: Q01DX005 (ip), vehicle: Klucel (hydroxypropylcellulose) (HPC) 100 % of control and 107 % of control | dose: 3.12 mg/kg/injection, schedule: Q01DX005 (ip), vehicle: Klucel (hydroxypropylcellulose) (HPC) 107 % of control and 96 % of control | dose: 6.25 mg/kg/injection, schedule: Q01DX005 (ip), vehicle: Klucel (hydroxypropylcellulose) (HPC) 104 % of control and 122 % of control and 97 % of control

COC(=O)c1csc(-c2csc(CCNC(=O)c3ccccc3)n2)n1
inactive: dose: 100.0 mg/kg/injection, schedule: Q04DX002 (ip), vehicle: saline with Tween-80 93 % of control | dose: 200.0 mg/kg/injection, schedule: Q04DX002 (ip), vehicle: saline with Tween-80 95 % of control | dose: 400.0 mg/kg/injection, schedule: Q04DX002 (ip), vehicle: saline with Tween-80 96 % of control

CN=C(NC1CCCCC1)c1ccc(NC(=O)c2ccc(C(=O)Nc3ccc(C(=NC)NC4CCCCC4)cc3)cc2)cc1
inactive: dose: 1.5 mg/kg/injection, schedule: Q01DX005 (ip), vehicle: saline with Tween-80 100 % of control | dose: 3.0 mg/kg/injection, schedule: Q01DX005 (ip), vehicle: saline with Tween-80 100 % of control | dose: 6.0 mg/kg/injection, schedule: Q01DX005 (ip), vehicle: saline with Tween-80 112 % of control | dose: 6.25 mg/kg/injection, schedule: Q01DX005 (ip), vehicle: saline with Tween-80 105 % of control

N#CC1OC1c1ccc[n+]([O-])c1 (stereo unspecified)
inactive: dose: 1.56 mg/kg/injection, schedule: Q01DX005 (ip), vehicle: saline 94 % of control | dose: 3.12 mg/kg/injection, schedule: Q01DX005 (ip), vehicle: saline 105 % of control | dose: 6.25 mg/kg/injection, schedule: Q01DX005 (ip), vehicle: saline 100 % of control | dose: 12.5 mg/kg/injection, schedule: Q01DX005 (ip), vehicle: saline 101 % of control

C1CCCN(N2CCOCC2)CC1
inactive: [1] 104 % of control | [2] 98 % of control | dose: 400.0 mg/kg/injection, schedule: Q01DX001 (ip), vehicle: saline 101 % of control

COC(=O)C1=C(C(=O)OC)C2C3CC4C(C13)C42
inactive: dose: 9.4 mg/kg/injection, schedule: Q01DX009 (none), vehicle: saline 105 % of control | dose: 18.75 mg/kg/injection, schedule: Q01DX009 (none), vehicle: saline 106 % of control | dose: 37.5 mg/kg/injection, schedule: Q01DX009 (none), vehicle: saline 105 % of control | dose: 75.0 mg/kg/injection, schedule: Q01DX009 (none), vehicle: saline 99 % of control

COC(=O)c1nc(N)nc(C(=O)OC)c1C(=O)c1ccccc1
inactive: dose: 60.0 mg/kg/injection, schedule: Q01DX005 (ip), vehicle: Klucel (hydroxypropylcellulose) (HPC) 100 % of control | dose: 120.0 mg/kg/injection, schedule: Q01DX005 (ip), vehicle: Klucel (hydroxypropylcellulose) (HPC) 93 % of control

Nc1cc(=O)[nH]c2ncnn12
inactive: dose: 25.0 mg/kg/injection, schedule: Q01DX009 (ip), vehicle: saline 103 % of control | dose: 50.0 mg/kg/injection, schedule: Q01DX009 (ip), vehicle: saline 109 % of control | dose: 100.0 mg/kg/injection, schedule: Q01DX009 (ip), vehicle: saline 102 % of control | dose: 200.0 mg/kg/injection, schedule: Q01DX009 (ip), vehicle: saline 99 % of control

C=CCC12CC(OC)C(O)CC1(O)OC(c1cc(OC)c(OC)c(OC)c1)C2C (stereo unspecified)
inactive: dose: 1.25 mg/kg/injection, schedule: Q01DX005 (ip), vehicle: acid diluted with saline 115 % of control | dose: 2.5 mg/kg/injection, schedule: Q01DX005 (ip), vehicle: acid diluted with saline 100 % of control | dose: 5.0 mg/kg/injection, schedule: Q01DX005 (ip), vehicle: acid diluted with saline 93 % of control | dose: 10.0 mg/kg/injection, schedule: Q01DX005 (ip), vehicle: acid diluted with saline 106 % of control
